The values that follow are results of earlier work, collected in article PMC3545186 (Biochemical Pharmacology, 2013).

For data set [1] the following is noted: cited from earlier work.
The conditions of data set [2]: Asian breast cancer patient population; cited from earlier work.

As to `COc1cc([C@@H]2c3cc4c(cc3[C@@H](O[C@@H]3O[C@@H]5CO[C@@H](C)O[C@H]5[C@H](O)[C@H]3O)[C@H]3COC(=O)[C@H]23)OCO4)cc(OC)c1O` [etoposide], the “higher plasma concentrations in Abcb1a/1b knockout mice compared to wild type (WT) mice” value in data set [1] is given as 1.4 fold.

Regarding `COc1cccc2c1C(=O)c1c(O)c3c(c(O)c1C2=O)C[C@@](O)(C(=O)CO)C[C@@H]3O[C@H]1C[C@H](N)[C@H](O)[C@H](C)O1` [doxorubicin], the “exposure in individuals homozygous mutant for ABCB1 C1236T, G2677T/A and C3435T” value in data set [2] is “significantly higher exposure”.
